Columns and labels:
[1] = target: T1, human recombinant MAGL (monoacylglycerol lipase) (Homo sapiens, UniProt Q99685); experiment: In vitro MAGL enzyme inhibition assay (Cayman Monoacylglycerol Lipase Inhibitor Screening Assay, 4-nitrophenylacetate hydrolysis); type: biochemical; conditions: 4-nitrophenylacetate substrate, 15 min preincubation, absorbance 405-415 nm
T1 construct: purchased Cayman Chemical Item No. 705192
T1 sequence (Q99685 1-303): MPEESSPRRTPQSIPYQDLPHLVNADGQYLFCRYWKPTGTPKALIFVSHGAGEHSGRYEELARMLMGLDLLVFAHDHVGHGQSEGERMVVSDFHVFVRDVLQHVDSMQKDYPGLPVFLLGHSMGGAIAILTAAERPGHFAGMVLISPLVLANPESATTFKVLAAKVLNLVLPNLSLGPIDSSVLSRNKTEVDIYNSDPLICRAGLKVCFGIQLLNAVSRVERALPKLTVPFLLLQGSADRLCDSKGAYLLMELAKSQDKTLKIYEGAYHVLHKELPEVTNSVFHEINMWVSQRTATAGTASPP
Description: Monoacylglycerol Lipase Inhibitor Screening Assay provides a convenient method for screening human MAGL inhibitors.
Dilute 3 ml of MAGL Assay Buffer (10×) concentrate with 27 ml of ultrapure water. This final 1× Assay Buffer (10 mM Tris-HCl, pH 7.2, containing 1 mM EDTA) should be used in the assay and for the dilution of MAGL enzyme, substrate, and MAGL inhibitor. The 1× Assay Buffer is stable for at least six months if stored at −20° C.
The vial contains 0.5 ml of 17 mM ethanolic solution of 4-nitrophenylacetate. Mix 150 μL of this solution with 450 μl of 1× Assay Buffer prior to testing. This is enough substrate to assay 50 wells. Dilute additional substrate if using the entire plate.
This vial contains 100 μl of a solution of human recombinant MAGL (monoacylglycerol lipase). The thawed enzyme should be stored on ice. Dilute 30 μl of enzyme with 570 μl of 1×MAGL Assay Buffer. This is enough enzyme to assay 50 wells. Dilute additional enzyme if using the entire plate. The diluted enzyme is stable for four hours on ice.
This vial contains 20 nmol of inhibitor. Resuspend in 125 μl of DMSO, then add 125 μl of 1× Assay Buffer and vortex to make an 80 μM stock.
1). 100% Initial Activity Wells—add 150 μl of 1× Assay Buffer, 10 μl of MAGL enzyme, and 10 μl of solvent (same solvent used to dissolve the inhibitor) to three wells.
2). Background Wells—add 160 μl of 1× Assay Buffer and 10 μl of solvent (same solvent used to dissolve the inhibitor) to three wells.
3). Inhibitor/Positive Control Wells—add 150 μl of 1× Assay Buffer, 10 μl of MAGL enzyme, and 10 μl of inhibitor* or positive control inhibitor to the inhibitor wells.
4). Mix the contents of the wells by pipetting gently up and down and incubate for 15 minutes at room temperature. The incubation time for different inhibitors may vary and will need to be optimized by the user.
5). Initiate the reactions by adding 10 μl of MAGL Substrate to all the wells being used. Carefully shake the 96-well plate for 10 seconds to mix and cover with the plate cover. Incubate for ten minutes at room temperature.
6). […] (Tecan Spark 10M Multimode Plate Reader)
1). Determine the average absorbance of each sample.
2). Subtract the average absorbance of the background wells from the average absorbance of the 100% initial activity and the inhibitor wells.
3). Determine the percent inhibition or percent activity for each inhibitor using one of the following equations: […]

[2] = system: 2% formalin model in SD rats; experiment: Formalin-induced pain model; type: in vivo; conditions: 3 mg/kg p.o.; for inhibition in vivo at 3 mg/kg: Rattus norvegicus, po, 1 h, movements (lifts and licks) 0-60 min after formalin, read-out: MPE % (Maximum Possible Effect)
Description: A diluted formalin solution is injected subcutaneously into the hind paw of rats using a microsyringe, creating a continuous noxious stimulus that induces spontaneous pain behaviors in the animals. The experiment can record the number of lifts and licks of the rat's foot through an autonomous movement analyzer to assess the degree of pain. This experiment uses a 2% formalin model in SD rats and tests the analgesic activity of compounds by oral administration. After injecting 2% formalin, the number of movements (lifts and licks of the injected foot) from 0-60 min after injecting the formalin solution is recorded and analyzed.
The Maximum Possible Effect (MPE %) is calculated as a percentage:
Note: (1) MPE % for each group is calculated with sham group MPE=100% and vehicle group MPE=0% as standards. (2) Movement counts of the sham group are subtracted to exclude the impact of background noise on the experiment. (2) “Sham” represents the average value of the sham group; “Vehicle-Sham” represents the average value of the vehicle group minus the sham group.
Results are presented as mean values with standard error. Data from each group are analyzed and graphed using GraphPad Prism 8 software. Statistical analysis is conducted using one-way ANOVA to determine statistical differences between groups, with t-tests used for comparisons between two groups. A p-value <0.05 is considered statistically significant.

O=C(OC(C(F)(F)F)C(F)(F)F)N1CCC(c2cc3n(n2)-c2ccc(F)cc2CC3)CC1 [Compound 1, 1,1,1,3,3,3-hexafluoropropan-2-yl 4-(7-fluoro-4,5-dihydropyrazolo[1,5-a]quinolin-2-yl)piperidine-1-carboxylate]
IC50 [1]: < 0.1 nM | Experimental Results (analgesic activity in the formalin model) [2]: effective | inhibition in vivo at 3 mg/kg [2]: 68%

O=C(OC(CO)C(F)(F)F)N1CCC(c2nn3c(c2C(F)(F)F)CCc2cc(F)ccc2-3)CC1 (stereo not drawn) [Compound 7, 1,1,1-trifluoro-3-hydroxypropan-2-yl 4-(7-fluoro-3-(trifluoromethyl)-4,5-dihydropyrazolo[1,5-a]quinolin-2-yl)piperidine-1-carboxylate]
IC50 [1]: 89.8 nM | Experimental Results (analgesic activity in the formalin model) [2]: effective | inhibition in vivo at 3 mg/kg [2]: 56%

O=C(OC(CO)C(F)(F)F)N1CCC(c2cn3c(n2)CCc2cc(F)ccc2-3)CC1 (stereo not drawn) [Compound 26, 1,1,1-trifluoro-3-hydroxypropan-2-yl 4-(7-fluoro-4,5-dihydroimidazo[1,2-a]quinolin-2-yl)piperidine-1-carboxylate]
IC50 [1]: 83.4 nM

CC(C)c1c(C2CCN(C(=O)OC(C(F)(F)F)C(F)(F)F)CC2)nn2c1CCc1cc(F)cnc1-2 [Compound 21, 1,1,1,3,3,3-hexafluoropropan-2-yl 4-(7-fluoro-3-isopropyl-4,5-dihydropyrazolo[1,5-a][1,8]naphthyridin-2-yl)piperidine-1-carboxylate]
IC50 [1]: 152 nM

O=C(OC(CO)C(F)(F)F)N1CCC(c2nc3n(c2Br)-c2ncc(F)cc2CC3)CC1 (stereo not drawn) [Compound 31, 1,1,1-trifluoro-3-hydroxypropan-2-yl 4-(9-bromo-3-fluoro-5,6-dihydroimidazo[1,2-a][1,8]naphthyridin-8-yl)piperidine-1-carboxylate]
IC50 [1]: 32.7 nM

Cc1c(C2CCN(C(=O)OC(C(F)(F)F)C(F)(F)F)CC2)nn2c1CCc1cc(F)cnc1-2 [Compound 17, 1,1,1,3,3,3-hexafluoropropan-2-yl 4-(7-fluoro-3-methyl-4,5-dihydropyrazolo[1,5-a][1,8]naphthyridin-2-yl)piperidine-1-carboxylate]
IC50 [1]: 126 nM

O=C(OC(CO)C(F)(F)F)N1CCC(c2nn3c(c2C2CC2)CCc2cc(F)ccc2-3)CC1 (stereo not drawn) [Compound 40, 1,1,1-trifluoro-3-hydroxypropan-2-yl 4-(3-cyclopropyl-7-fluoro-4,5-dihydropyrazolo[1,5-a]quinolin-2-yl)piperidine-1-carboxylate]
IC50 [1]: 18.8 nM | Experimental Results (analgesic activity in the formalin model) [2]: effective | inhibition in vivo at 3 mg/kg [2]: 41%

O=C(OC(CO)C(F)(F)F)N1CCC(c2nc3n(c2Br)-c2ccc(F)cc2CC3)CC1 (stereo not drawn) [Compound 28, 1,1,1-trifluoro-3-hydroxypropan-2-yl 4-(1-bromo-7-fluoro-4,5-dihydroimidazo[1,2-a]quinolin-2-yl)piperidine-1-carboxylate]
IC50 [1]: 25.1 nM

O=C(OC(CO)C(F)(F)F)N1CCC(c2nn3c(c2F)CCc2cc(F)ccc2-3)CC1 (stereo not drawn) [Compound 3, 1,1,1-trifluoro-3-hydroxypropan-2-yl 4-(3,7-difluoro-4,5-dihydropyrazolo[1,5-a]quinolin-2-yl)piperidine-1-carboxylate]
Experimental Results (analgesic activity in the formalin model) [2]: effective | inhibition in vivo at 3 mg/kg [2]: 61%

O=C(OC(CO)C(F)(F)F)N1CC2C(C1)C2c1cc2n(n1)-c1ccc(F)cc1CC2 (stereo not drawn) [Compound 12, 1,1,1-trifluoro-3-hydroxypropan-2-yl 6-(7-fluoro-4,5-dihydropyrazolo[1,5-a]quinolin-2-yl)-3-azabicyclo[3.1.0]hexane-3-carboxylate]
Experimental Results (analgesic activity in the formalin model) [2]: effective | inhibition in vivo at 3 mg/kg [2]: 64%

Cc1c(C2CCN(C(=O)OC(CO)C(F)(F)F)CC2)nn2c1CCc1cc(F)ccc1-2 (stereo not drawn) [Compound 6, 1,1,1-trifluoro-3-hydroxypropan-2-yl 4-(7-fluoro-3-methyl-4,5-dihydropyrazolo[1,5-a]quinolin-2-yl)piperidine-1-carboxylate]
IC50 [1]: 16.7 nM | Experimental Results (analgesic activity in the formalin model) [2]: effective | inhibition in vivo at 3 mg/kg [2]: 44%

O=C(OC(C(F)(F)F)C(F)(F)F)N1CCC(c2cc3n(n2)-c2ncc(F)cc2CC3)CC1 [Compound 13, 1,1,1,3,3,3-hexafluoropropan-2-yl 4-(7-fluoro-4,5-dihydropyrazolo[1,5-a][1,8]naphthyridin-2-yl)piperidine-1-carboxylate]
IC50 [1]: 9.1 nM | Experimental Results (analgesic activity in the formalin model) [2]: effective | inhibition in vivo at 3 mg/kg [2]: 49%

N#Cc1c(C2CCN(C(=O)OC(C(F)(F)F)C(F)(F)F)CC2)nn2c1CCc1cc(F)cnc1-2 [Compound 18, 1,1,1,3,3,3-hexafluoropropan-2-yl 4-(3-cyano-7-fluoro-4,5-dihydropyrazolo[1,5-a][1,8]naphthyridin-2-yl)piperidine-1-carboxylate]
IC50 [1]: 78.3 nM

CC(C)c1c(C2CCN(C(=O)OC(C(F)(F)F)C(F)(F)F)CC2)nn2c1ccc1cc(F)cnc12 [Compound 34, 1,1,1,3,3,3-hexafluoropropan-2-yl 4-(7-fluoro-3-isopropylpyrazolo[1,5-a][1,8]naphthyridin-2-yl)piperidine-1-carboxylate]
IC50 [1]: 12.5 nM

O=C(OC(CO)C(F)(F)F)N1CCC(c2nn3c(c2Br)CCc2cc(F)ccc2-3)CC1 (stereo not drawn) [Compound 5, 1,1,1-trifluoro-3-hydroxypropan-2-yl 4-(3-bromo-7-fluoro-4,5-dihydropyrazolo[1,5-a]quinolin-2-yl)piperidine-1-carboxylate]
IC50 [1]: 37.1 nM | Experimental Results (analgesic activity in the formalin model) [2]: effective | inhibition in vivo at 3 mg/kg [2]: 44%

O=C(OC(C(F)(F)F)C(F)(F)F)N1CCN(c2cc3n(n2)-c2ccc(F)cc2CC3)CC1 [Compound 35, 1,1,1,3,3,3-hexafluoropropan-2-yl 4-(7-fluoro-4,5-dihydropyrazolo[1,5-a]quinolin-2-yl)piperazine-1-carboxylate]
IC50 [1]: 13.1 nM

O=C(OC(CO)C(F)(F)F)N1CCC(c2nn3c(c2Cl)CCc2cc(F)ccc2-3)CC1 (stereo not drawn) [Compound 4, 1,1,1-trifluoro-3-hydroxypropan-2-yl 4-(3-chloro-7-fluoro-4,5-dihydropyrazolo[1,5-a]quinolin-2-yl)piperidine-1-carboxylate]
Experimental Results (analgesic activity in the formalin model) [2]: effective | inhibition in vivo at 3 mg/kg [2]: 51%

O=C(OC(C(F)(F)F)C(F)(F)F)N1CCN(Cc2ccc(C(F)(F)F)cc2N2CCCC2)CC1 [ABX-1431, reference compound]
Experimental Results (analgesic activity in the formalin model) [2]: effective | inhibition in vivo at 3 mg/kg [2]: 33%

O=C(OC(C(F)(F)F)C(F)(F)F)N1CCC(c2nc3n(n2)-c2ccc(F)cc2CC3)CC1 [Compound 24, 1,1,1,3,3,3-hexafluoropropan-2-yl 4-(7-fluoro-4,5-dihydro-[1,2,4]triazolo[1,5-a]quinolin-2-yl)piperidine-1-carboxylate]
Experimental Results (analgesic activity in the formalin model) [2]: effective | inhibition in vivo at 3 mg/kg [2]: 50%
